Publication PMC5902452, “In silico optimization of a guava antimicrobial peptide enables combinatorial exploration for peptide design” (Nature Communications, 2018)
≈ marks a conversion by molar mass, not a printed value. Peptide text beside a SMILES is read from it.

Experiments:
[1] = tested on: P. aeruginosa H1001 (fliC::luxCDABE); format: cell-based, Pseudomonas aeruginosa; conditions: SPOT-synthesized unpurified crude peptide (~70% purity); bioluminescent engineered P. aeruginosa; BM2 medium; 4 h, 37 °C; reduction of luminescence; 200 to 3 μg mL−1 tested
Protocol: A peptide array composed of 20 peptides (15 guavanins, 4 Pg-AMP1 fragments, and magainin 2) was designed and synthesized by Kinexus Bioinformatics Corporation (Vancouver, BC). Peptides were produced in a standard mass of 80 μg by using cellulose support in SPOT technology. The crude synthetic peptides were obtained from cellulose membrane discs that had already been treated with ammonia gas to release the peptides from the membrane. Peptides were then dissolved overnight in distilled water and subsequently evaluated for their biological activities, as described below.
The antimicrobial activity of the synthesized peptides was evaluated against an engineered luminescent P. aeruginosa H1001 (fliC::luxCDABE) strain in 96-well microplates. Aqueous solutions of peptides released from the cellulose spots were diluted twofold in BM2 medium [62 mM potassium phosphate buffer pH 7; 2 mM MgSO4; 10 μM FeSO4; 0.4% (wt/vol) glucose] down the eight wells of a 96-well plate, achieving a final volume of 25 μL in each well. Subsequently, 50 μL of overnight culture of P. aeruginosa H1001 (fliC::luxCDABE) were subcultured in 5 mL of fresh LB media and grown until they reached an OD600 of 0.4. This growing bacteria culture was then diluted 4:100 (v/v) into fresh BM2 media and 25 μL of this diluted bacterial culture was transferred to the microplate wells containing 25 μL of peptide solution. The final peptide concentrations tested ranged from 200 to 3 μg mL^−1. The plates were incubated for 4 h at 37 °C with constant shaking at 50 rpm. Luminescence was measured on a Tecan […]luor Plus Microplate Reader (Tecan US, Morrisville, NC). The antimicrobial activity was evaluated by the ability of the peptides to reduce the luminescence of P. aeruginosa-lux strain compared to untreated cells. The AMP magainin 2 and the carbapenem meropenem were used as positive controls and distilled water was used as a negative control.

[2] = tested on: Pseudomonas aeruginosa ATCC 27853; format: cell-based; conditions: ATCC 27853, 18 h
Source text: (§2) Lysogeny Broth (LB) was used for cultures of Acinetobacter baumannii ATCC 19606, Enterococcus faecalis ATCC 29212, Escherichia coli ATCC 25922, Klebsiella pneumoniae ATCC 13883, Pseudomonas aeruginosa ATCC 27853, and S. aureus ATCC 25923. Brain Heart Infusion (BHI) broth was used for cultures of Listeria ivanovii Li 4pVS2 and Streptococcus pyogenes ATCC 19615. Yeast peptone dextrose (YPD) medium was used for Candida species (C. albicans ATCC 90028 and C. parapsilosis ATCC 22019). MH (Mueller Hinton) broth was used for suspend centrifuged culture of bacteria and yeasts in logarithmic phase to an A630 of 0.01 (~10^6 cfu mL^−1), except for S. pyogenes, L. ivanovii, and E. faecalis that were suspended in their respective growth medium. […] A microplate reader (UVM 340, Asys Hitech) was used to monitor the antimicrobial susceptibility by measuring the change in A630. […] Each experiment was performed in triplicate with positive (0.7% formaldehyde) and negative (without peptide) inhibition controls.

[3] = tested on: Enterococcus faecalis ATCC 29212; format: cell-based; conditions: ATCC 29212, 18 h
Source text: as §2

E. coli ATCC 25922 = assay: Membrane polarization assay with DiSC3(5); format: cell-based, Escherichia coli; conditions: 12.5 µM (twofold above the MIC), 20 min, 37 °C
Protocol: When the cytoplasmic membrane is intact, the fluorescent probe DiSC3(5) accumulates into the cytoplasmic membrane and then aggregates, causing self-quenching of the fluorescence. In the presence of a membrane-depolarizing agent, DiSC3(5) is released into the medium, leading to an increase in fluorescence that can be monitored over time[59]. Briefly, exponentially growing bacteria were centrifuged (1000 × g, 10 min, 4 °C), washed with PBS, and resuspended in the same buffer to an A630 of 0.1; then 700 µL of bacteria were pre-incubated with 1 µM DiSC3(5) in the dark during 10 min at 37 °C, and then 100 µL of 1 mM KCl were added in order to equilibrate the cytoplasmic and external K^+ concentrations. […] Three independent experiments were performed and results correspond to a representative experiment with negative (PBS) and positive (melittin) controls.

[4] = tested on: P. aeruginosa strain PAO1; assay: Scarification skin infection mouse model; format: in vivo, female CD-1 mice
Protocol: P. aeruginosa strain PAO1 was grown to an optical density at 600 nm (OD600) of 1 in tryptic soy broth medium. Subsequently cells were washed twice with sterile PBS, and resuspended to a final concentration of 5 × 10^7 CFU in 50 μL. To generate skin infection, female CD-1 mice (6 weeks old) were anesthetized with isoflurane and had their backs shaved. A superficial linear skin abrasion was made with a needle in order to damage the stratum corneum and upper layer of the epidermis. Five minutes after wounding, an aliquot of 50 μL containing 5 × 10^7 CFU of bacteria in PBS was inoculated over each defined area containing the scratch with a pipette tip. One day after the infection, peptides were administered to the infected area. Animals were euthanized and the area of scarified skin was excised 2 and 4 days post-infection, homogenized using a bead beater for 20 min (25 Hz), and serially diluted for CFU quantification. Two independent experiments were performed with four mice per group in each case. Statistical significance was assessed using a two-way ANOVA. Animals were maintained in accordance with the Guide for the Care and Use of Laboratory Animals in an AAALAC-accredited facility. All procedures were approved by the MIT’s Institutional Animal Care and Use Committee (IACUC), protocol number 1016-064-19.

[5] = tested on: C. albicans clinical isolate; assay: Antibiofilm assay (planktonic growth and biofilm formation, crystal violet); format: cell-based, Candida albicans
Protocol: (§1) Overnight cultures of microorganisms [E. coli 0157, methicillin-resistant S. aureus (MRSA), K. pneumoniae 1825971, or C. albicans clinical isolate obtained from a blood culture maintained at LACEN (Laboratório Central de Saúde do Distrito Federal, a Brazilian reference laboratory for clinical isolates in Brasília, Brazil)] grown in LB broth (BD Difco) were diluted 1 in 100 in LB and Todd-Hewitt broth (BD Difco) or BM2 minimal medium [62 mM potassium phosphate buffer, pH 7.0, 7 mM (NH4)2SO4, 2 mM MgSO4, 10 μM FeSO4, 0.5% glucose], and 100 μL per well was added into 96-well round-bottom microplates. Absorbance at 600 nm was used to assess the planktonic cell growth. Non-adherent planktonic cells were removed from microtiter wells and washed twice with deionized water. Adherent cells were stained with 0.1% crystal violet for 20 min. The microplate wells were washed twice with deionized water, air dried, and solubilized with 110 μL of 70% ethanol. […] Biofilm formation was assessed by measuring the absorbance at 600 nm using a microplate reader (Bio-Tek Instruments, Inc., USA). The microdilution method for cationic peptides was used to determine the MIC for planktonic cells. Three biological replicates were performed for each experiment involving eight technical replicates.

K. pneumoniae 1825971 = assay: Antibiofilm assay; format: cell-based, Klebsiella pneumoniae
Protocol: as §1

[6] = tested on: Listeria ivanovii Li4pVS2; conditions: purified peptide; BHI broth, 18 h, 37 °C, A630; average of three independent experiments in triplicate
Source text: as §2

In the case of `CC[C@H](C)[C@H](NC(=O)[C@H](CCCNC(=N)N)NC(=O)[C@H](Cc1ccc(O)cc1)NC(=O)CNC(=O)[C@H](Cc1ccc(O)cc1)NC(=O)[C@H](CCCNC(=N)N)NC(=O)[C@H](CC(C)C)NC(=O)[C@H](C)NC(=O)[C@H](CCC(N)=O)NC(=O)[C@H](CCC(=O)O)NC(=O)[C@@H](NC(=O)[C@H](CCC(N)=O)NC(=O)[C@H](CCCNC(=N)N)NC(=O)[C@H](CCSC)NC(=O)[C@H](Cc1ccc(O)cc1)NC(=O)[C@H](CCC(N)=O)NC(=O)[C@@H](N)CCCNC(=N)N)[C@@H](C)CC)C(=O)N[C@@H](CO)C(=O)N[C@@H](CCCNC(=N)N)C(=O)N[C@@H](CCCNC(=N)N)C(N)=O` [Guavanin 2] (H-RQYMRQIEQALRYGYRISRR-NH2), the MIC [1] is reported as 6.25 µg/mL (≈ 2.36 µM), the “Active concentration (MIC)” value [2] is reported as 25 µM and the “Active concentration (MIC)” value [3] is reported as >100 µM. For the same compound, the “DiSC3(5) fluorescence change (membrane potential)” value (E. coli ATCC 25922) was “decrease in DiSC3(5) fluorescence”, the “reduction in bacterial counts” value ([4]; 6.25 μg mL−1 (lowest dose) applied to infected area 24 h after infection, after 4 days) was 3 log and the “effect on CFU counts / bacterial load (two-way ANOVA)” value ([4]; doses 6.25, 25 and 100 µg mL−1, 4 days post-infection, two experiments, four mice per group) was “significantly reduced CFU counts”. The antibiofilm activity [5] was “able to reduce C. albicans biofilms”, the “concentration from which biofilm formation is inhibited (p<0.05)” value ([5]; crystal violet, Student's t-test, three replicates) was 32 µg/mL and the “concentration from which planktonic cells are affected (p<0.05)” value ([5]; planktonic cells not eliminated, Student's t-test, three replicates) was 16 µg/mL. For the same compound, the antibiofilm activity (K. pneumoniae 1825971) was “only able to reduce C. albicans biofilms” and the “Active concentration (MIC)” value [6] was 50 µM.
